Measurements from patent publication US9834579B2, “Crystalline forms of s-acetyl glutathione, their preparations and uses in pharmaceutical and nutraceutical formulations” (Gnosis S.p.A., priority 2013, dated 2017).

Key:
[1] = accelerated stability test of solid forms at 50° C. for 6 months (European Pharmacopoeia); type: physicochemical; conditions: for GSH / GSSG / SAG / Unknown impurities (single) / Unknown impurities (total): % area
Description: The stability of the various solid forms was tested as described in the European Pharmacopoeia (EP), by conducting accelerated stability tests at 50° C. for 6 months.

[2] = dissolution rate in water; type: physicochemical; conditions: comparison of solid forms
[3] = powder density / apparent density; type: physicochemical; conditions: for Apparent density: product of the example after drying
[4] = heat and mechanical stress, conversion of one polymorph to the other; type: physicochemical; conditions: heat and mechanical stresses
[5] = flowability of the powders; type: physicochemical; conditions: comparison of crystalline forms
[6] = oral, seven healthy volunteers, doses of up to 3 g per dose; cited from earlier work
[7] = test system: fibroblasts originating from individuals suffering from a genetic glutathione synthetase deficiency; conditions: addition to fibroblast cultures; cited from earlier work
[8] = compared with GSH; cited from earlier work
[9] = test system: cell levels of GSH impoverished by viral infections; conditions: cells impoverished by viral infections, compared with GSH; cited from earlier work
human tumour cell lines = conditions: some human tumour cell lines in vitro; cited from earlier work

CC(=O)SC[C@H](NC(=O)CC[C@H](N)C(=O)O)C(=O)NCC(=O)O [Amorphous, S-acetyl glutathione]
SAG - assay value ([1]; 0 months): 96.5%
GSH ([1]; 0 months): 1.0%
GSSG ([1]; 0 months): 2.5%
SAG ([1]; 0 months): 95.1%
Unknown impurities (single) ([1]; 0 months): 0.4%
Unknown impurities (total) ([1]; 0 months): 1.4%
SAG - assay value ([1]; 1.5 months): 94.9%
GSH ([1]; 1.5 months): 1.6%
GSSG ([1]; 1.5 months): 2.5%
SAG ([1]; 1.5 months): 94.6%
Unknown impurities (single) ([1]; 1.5 months): 0.9%
Unknown impurities (total) ([1]; 1.5 months): 1.9%
SAG - assay value ([1]; 3 months): 92.4%
GSH ([1]; 3 months): 2.4%
GSSG ([1]; 3 months): 2.8%
SAG ([1]; 3 months): 91.3%
Unknown impurities (single) ([1]; 3 months): 1.2%
Unknown impurities (total) ([1]; 3 months): 2.3%
SAG - assay value ([1]; 4.5 months): 91.5%
GSH ([1]; 4.5 months): 2.8%
GSSG ([1]; 4.5 months): 2.9%
SAG ([1]; 4.5 months): 90.4%
Unknown impurities (single) ([1]; 4.5 months): 1.3%
Unknown impurities (total) ([1]; 4.5 months): 2.7%
SAG - assay value ([1]; 6 months): 89.9%
GSH ([1]; 6 months): 2.5%
GSSG ([1]; 6 months): 3.9%
SAG ([1]; 6 months): 88.6%
Unknown impurities (single) ([1]; 6 months): 1.5%
Unknown impurities (total) ([1]; 6 months): 3.5%
stability of the solid form (comparison) ([1]; 6 months, data of Table 3): much less stable than the crystalline forms
dissolution rate ([2]; listed as amorphous form): dissolves more rapidly

CC(=O)SC[C@H](NC(=O)CC[C@H](N)C(=O)O)C(=O)NCC(=O)O [Example 3, S-acetyl glutathione]
Apparent density [3]: 0.35 g/mL

CC(=O)SC[C@H](NC(=O)CC[C@H](N)C(=O)O)C(=O)NCC(=O)O [Form A, S-acetyl glutathione]
SAG - assay value ([1]; 0 months): 98.6%
GSH ([1]; 0 months): 0.1%
GSSG ([1]; 0 months): 2.2%
SAG ([1]; 0 months): 96.3%
Unknown impurities (single) ([1]; 0 months): 0.4%
Unknown impurities (total) ([1]; 0 months): 1.0%
SAG - assay value ([1]; 1.5 months): 98.3%
GSH ([1]; 1.5 months): 0.1%
GSSG ([1]; 1.5 months): 2.2%
SAG ([1]; 1.5 months): 95.5%
Unknown impurities (single) ([1]; 1.5 months): 0.5%
Unknown impurities (total) ([1]; 1.5 months): 1.7%
SAG - assay value ([1]; 3 months): 97.8%
GSH ([1]; 3 months): 0.2%
GSSG ([1]; 3 months): 2.3%
SAG ([1]; 3 months): 95.1%
Unknown impurities (single) ([1]; 3 months): 0.5%
Unknown impurities (total) ([1]; 3 months): 1.9%
SAG - assay value ([1]; 4.5 months): 97.6%
GSH ([1]; 4.5 months): 0.2%
GSSG ([1]; 4.5 months): 2.4%
SAG ([1]; 4.5 months): 94.7%
Unknown impurities (single) ([1]; 4.5 months): 0.7%
Unknown impurities (total) ([1]; 4.5 months): 2.0%
SAG - assay value ([1]; 6 months): 97.4%
GSH ([1]; 6 months): 0.3%
GSSG ([1]; 6 months): 2.4%
SAG ([1]; 6 months): 94.4%
Unknown impurities (single) ([1]; 6 months): 0.9%
Unknown impurities (total) ([1]; 6 months): 2.0%
conversion of one polymorph to the other [4]: not found
powder density [3]: 0.2 to 0.25 g/mL
Apparent density ([3]; listed as Example 1): 0.15 to 0.25 g/mL
flowability of the powder [5]: better flowability

CC(=O)SC[C@H](NC(=O)CC[C@H](N)C(=O)O)C(=O)NCC(=O)O [Form B, S-acetyl glutathione]
SAG - assay value ([1]; 0 months): 99.3%
GSH ([1]; 0 months): 0.2%
GSSG ([1]; 0 months): 1.1%
SAG ([1]; 0 months): 97.7%
Unknown impurities (single) ([1]; 0 months): 0.2%
Unknown impurities (total) ([1]; 0 months): 0.8%
SAG - assay value ([1]; 1.5 months): 99.1%
GSH ([1]; 1.5 months): 0.3%
GSSG ([1]; 1.5 months): 1.2%
SAG ([1]; 1.5 months): 97.1%
Unknown impurities (single) ([1]; 1.5 months): 0.5%
Unknown impurities (total) ([1]; 1.5 months): 0.9%
SAG - assay value ([1]; 3 months): 98.7%
GSH ([1]; 3 months): 0.7%
GSSG ([1]; 3 months): 0.8%
SAG ([1]; 3 months): 96.7%
Unknown impurities (single) ([1]; 3 months): 0.7%
Unknown impurities (total) ([1]; 3 months): 1.1%
SAG - assay value ([1]; 4.5 months): 98.3%
GSH ([1]; 4.5 months): 0.9%
GSSG ([1]; 4.5 months): 1.1%
SAG ([1]; 4.5 months): 96.0%
Unknown impurities (single) ([1]; 4.5 months): 0.7%
Unknown impurities (total) ([1]; 4.5 months): 1.3%
SAG - assay value ([1]; 6 months): 98.1%
GSH ([1]; 6 months): 1.0%
GSSG ([1]; 6 months): 0.9%
SAG ([1]; 6 months): 95.7%
Unknown impurities (single) ([1]; 6 months): 0.8%
Unknown impurities (total) ([1]; 6 months): 2.0%
conversion of one polymorph to the other [4]: not found
dissolution rate [2]: most rapid dissolution rate
powder density [3]: 0.4 g/mL
Apparent density ([3]; listed as Example 2): 0.25 to 0.40 g/mL

N[C@@H](CCC(=O)N[C@@H](CS)C(=O)NCC(=O)O)C(=O)O [GSH, γ-L-glutamyl-L-cysteinylglycine]
increase in the blood levels of glutathione, cysteine and glutamate [6]: no significant increases

CC(=O)SC[C@H](NC(=O)CC[C@H](N)C(=O)O)C(=O)NCC(=O)O [SAG, S-acetyl glutathione]
replenishment of the intracellular level of GSH [7]: able to replenish the intracellular level of GSH effectively
stability in the plasma [8]: more stable in the plasma
replenishing the cell levels of GSH [9]: more effective than GSH
induction of apoptosis (non-GSH-dependent activity) (human tumour cell lines): induces apoptosis
